# Assay results from US20170189507A1, “NOVEL PEPTIDES AND COMBINATION OF PEPTIDES FOR USE IN IMMUNOTHERAPY AGAINST VARIOUS CANCERS” (immatics biotechnologies GmbH, priority 2015, published 2017).
# Test system: CD8+ T cells
# Assay: In vitro immunogenicity: T-cell priming with aAPCs loaded with peptide/MHC complexes and anti-CD28 antibody, pMHC multimer readout
# Assay type: cell-based, human
# Conditions: CD8+ T cells of healthy donors, three stimulation cycles, multimer staining; Table 19A
# Protocol: In an aspect, the peptides are pre-screened for immunogenicity before being included in the warehouse. By way of example, and not limitation, the immunogenicity of the peptides included in the warehouse is determined by a method comprising in vitro T-cell priming through repeated stimulations of CD8+ T cells from healthy donors with artificial antigen presenting cells loaded with peptide/MHC complexes and anti-CD28 antibody.
# In order to obtain information regarding the immunogenicity of the TUMAPs of the present invention, the inventors performed investigations using an in vitro T-cell priming assay based on repeated stimulations of CD8+ T cells with artificial antigen presenting cells (aAPCs) loaded with peptide/MHC complexes and anti-CD28 antibody.
# In order to perform in vitro stimulations by artificial antigen presenting cells loaded with peptide-MHC complex (pMHC) and anti-CD28 antibody, the inventors first isolated CD8+ T cells from fresh HLA-A*02 leukapheresis products via positive selection using CD8 microbeads (Miltenyi Biotec, Bergisch-Gladbach, Germany) of healthy donors obtained from the University clinics Mannheim, Germany, after informed consent.
# PBMCs and isolated CD8+ lymphocytes were incubated in T-cell medium (TCM) until use consisting of RPMI-Glutamax (Invitrogen, Karlsruhe, Germany) supplemented with 10% heat inactivated human AB serum (PAN-Biotech, Aidenbach, Germany), 100 U/ml Penicillin/100 μg/ml Streptomycin (Cambrex, Cologne, Germany), 1 mM sodium pyruvate (CC Pro, Oberdorla, Germany), 20 μg/ml Gentamycin (Cambrex). 2.5 ng/ml IL7 (PromoCell, Heidelberg, Germany) and 10 U/ml IL-2 (Novartis Pharma, Nurnberg, Germany) were also added to the TCM at this step.
# Generation of pMHC/anti-CD28 coated beads, T-cell stimulations and readout was performed in a highly defined in vitro system using four different pMHC molecules per stimulation condition and 8 different pMHC molecules per readout condition.
# The purified co-stimulatory mouse IgG2a anti human CD28 Ab 9.3 (Jung et al., 1987) was chemically biotinylated using Sulfo-N-hydroxysuccinimidobiotin as recommended by the manufacturer (Perbio, Bonn, Germany). Beads used were 5.6 μm diameter streptavidin coated polystyrene particles (Bangs Laboratories, Illinois, USA).
# pMHC used for positive and negative control stimulations were A*0201/MLA-001 (peptide […] (SEQ ID NO. 303) from modified Melan-A/MART-1) and A*0201/DDX5-001 ([…] from DDX5, SEQ ID NO. 304), respectively.
# 800.000 beads/200 μl were coated in 96-well plates in the presence of 4×12.5 ng different biotin-pMHC, washed and 600 ng biotin anti-CD28 were added subsequently in a volume of 200 μl. Stimulations were initiated in 96-well plates by co-incubating […] CD8+ T cells with 2×10^5 washed coated beads in 200 μl TCM supplemented with 5 ng/ml IL-12 (PromoCell) for 3 days at 37° C. Half of the medium was then exchanged by fresh TCM supplemented with 80 U/ml IL-2 and incubating was continued for 4 days at 37° C. This stimulation cycle was performed for a total of three times. For the pMHC multimer readout using 8 different pMHC molecules per condition, a twodimensional combinatorial coding approach was used as previously described (Andersen et al., 2012) with minor modifications encompassing coupling to 5 different fluorochromes. Finally, multimeric analyses were performed by staining the cells with Live/dead near IR dye (Invitrogen, Karlsruhe, Germany), CD8-FITC antibody clone SK1 (BD, Heidelberg, Germany) and fluorescent pMHC multimers. For analysis, a BD LSRII SORP cytometer equipped with appropriate lasers and filters was used. Peptide specific cells were calculated as percentage of total CD8+ cells. Evaluation of multimeric analysis was done using the FlowJo software (Tree Star, Oregon, USA). In vitro priming of specific multimer+ CD8+ lymphocytes was detected by comparing to negative control stimulations.
row,Substance,Wells (in vitro immunogenicity of HLA class I peptides)
1,290 (KIVDFSYSV; listed as Homo sapiens) [compound 290],++ (20%-49% = ++)
2,293 (FLVDGSWSI; listed as Homo sapiens) [compound 293],+ (<20% = +)
3,297 (PFLQASPHF; listed as Homo sapiens) [compound 297],++ (20%-49% = ++)
4,292 (GMMTAILGV; listed as Homo sapiens) [compound 292],+ (<20% = +)
5,300 (AYVLRLETL; listed as Homo sapiens) [compound 300],+ (<20% = +)

# Same assay, conditions: in vitro immunogenicity of HLA class I peptides; peptide-specific multimer+ wells after aAPC priming of CD8+ T cells
row,Substance,Wells positive [%]
1,90 (FLQDLEQRL; listed as Homo sapiens) [compound 90],+ (<20% = +)
2,268 (QYLGQIQHI; listed as Homo sapiens) [compound 268],+ (<20% = +)
3,149 (ILNTHITEL; listed as Homo sapiens) [compound 149],+ (<20% = +)
4,31 (TITETTVEV; listed as Homo sapiens) [compound 31],+ (<20% = +)
5,18 (ILLDLTDNRL; listed as Homo sapiens) [compound 18],+ (<20% = +)
6,29 (YLLDPSITL; listed as Homo sapiens) [compound 29],+ (<20% = +)
7,207 (AYVVFVSTL; listed as Homo sapiens) [compound 207],+ (<20% = +)
8,285 (HYPPVQVLF; listed as Homo sapiens) [compound 285],+ (<20% = +)
9,5 (GIVAHIQEV; listed as Homo sapiens) [compound 5],+ (<20% = +)
10,141 (FLDKVLVAA; listed as Homo sapiens) [compound 141],+ (<20% = +)
11,218 (YYKSTSSAF; listed as Homo sapiens) [compound 218],+ (<20% = +)
12,269 (YFIDSTNLKTHF; listed as Homo sapiens) [compound 269],+ (<20% = +)

# Test system: HLA-A*24
# Assay: MHC binding assay (UV-ligand exchange, beta2m ELISA), HLA-A*24
# Parameters: species or system human
# Conditions: MHC class I binding score, peptide exchange yield
# Excerpt: Candidate peptides for T cell based therapies according to the present invention were further tested for their MHC binding capacity (affinity). The individual peptide-MHC complexes were produced by UV-ligand exchange, where a UV-sensitive peptide is cleaved upon UV-irradiation, and exchanged with the peptide of interest as analyzed. Only peptide candidates that can effectively bind and stabilize the peptide-receptive MHC molecules prevent dissociation of the MHC complexes. To determine the yield of the exchange reaction, an ELISA was performed based on the detection of the light chain ([…] of stabilized MHC complexes. The assay was performed as generally described in Rodenko et al. (Rodenko et al., 2006).
# 96 well MAXISorp plates (NUNC) were coated over night with 2 ug/ml streptavidin in PBS at room temperature, washed 4× and blocked for 1 h at 37° C. in 2% BSA containing blocking buffer. Refolded HLA-A*02:01/MLA-001 monomers served as standards, covering the range of 15-500 ng/ml. Peptide-MHC monomers of the UV-exchange reaction were diluted 100 fold in blocking buffer. Samples were incubated for 1 h at 37° C., washed four times, incubated with 2 ug/ml HRP conjugated anti-β2m for 1 h at 37° C., washed again and detected with TMB solution that is stopped with […]. Absorption was measured at 450 nm. Candidate peptides that show a high exchange yield (preferably higher than 50%, most preferred higher than 75%) are generally preferred for a generation and production of antibodies or fragments thereof, and/or T cell receptors or fragments thereof, as they show sufficient avidity to the MHC molecules and prevent dissociation of the MHC complexes.
row,Substance,Peptide exchange
1,282 (KFVDSTFYL; listed as Homo sapiens) [compound 282],++++ (>=75% = ++++)
2,194 (EFGSLHLEFL; listed as Homo sapiens) [compound 194],+ (<20% = +)
3,193 (RFHPTPLLL; listed as Homo sapiens) [compound 193],++++ (>=75% = ++++)
4,228 (KYTSWYVAL; listed as Homo sapiens) [compound 228],++++ (>=75% = ++++)
5,210 (IYTMIYRNL; listed as Homo sapiens) [compound 210],++++ (>=75% = ++++)

# Now from value to substance:
row,Peptide exchange,Substance
1,++++ (>=75% = ++++),277 (VYQGHTALL; listed as Homo sapiens) [compound 277]
2,++++ (>=75% = ++++),175 (YYEVHKELF; listed as Homo sapiens) [compound 175]
3,++++ (>=75% = ++++),173 (IYSWILDHF; listed as Homo sapiens) [compound 173]
4,++++ (>=75% = ++++),192 (SYALLTYMI; listed as Homo sapiens) [compound 192]
5,++++ (>=75% = ++++),160 (VYTLDIPVL; listed as Homo sapiens) [compound 160]
6,++++ (>=75% = ++++),267 (KYMVYPQTF; listed as Homo sapiens) [compound 267]
7,++++ (>=75% = ++++),227 (IFLDYEAGTLSF; listed as Homo sapiens) [compound 227]
8,++++ (>=75% = ++++),202 (VYWDSAGAAHF; listed as Homo sapiens) [compound 202]
9,++++ (>=75% = ++++),280 (RYPDNLKHLYL; listed as Homo sapiens) [compound 280]
10,++++ (>=75% = ++++),271 (LYHDIFSRL; listed as Homo sapiens) [compound 271]
11,++++ (>=75% = ++++),184 (VFQNFPLLF; listed as Homo sapiens) [compound 184]
12,++++ (>=75% = ++++),289 (KYPVEWAKF; listed as Homo sapiens) [compound 289]
13,++++ (>=75% = ++++),187 (TYLRDQHFL; listed as Homo sapiens) [compound 187]
14,++++ (>=75% = ++++),211 (YYLEVGKTLI; listed as Homo sapiens) [compound 211]
15,++++ (>=75% = ++++),272 (QYLQDAYSF; listed as Homo sapiens) [compound 272]
16,++++ (>=75% = ++++),161 (IYLVSIPEL; listed as Homo sapiens) [compound 161]
17,++++ (>=75% = ++++),168 (KYQDILETI; listed as Homo sapiens) [compound 168]
18,++++ (>=75% = ++++),181 (LYLDIINLF; listed as Homo sapiens) [compound 181]
19,++++ (>=75% = ++++),177 (VYPWLGALL; listed as Homo sapiens) [compound 177]
20,++++ (>=75% = ++++),276 (VYGFQWRHF; listed as Homo sapiens) [compound 276]
21,++++ (>=75% = ++++),186 (IFPQFLYQF; listed as Homo sapiens) [compound 186]
22,++++ (>=75% = ++++),216 (QYSSVFKSL; listed as Homo sapiens) [compound 216]
23,++++ (>=75% = ++++),166 (YYVESGKLF; listed as Homo sapiens) [compound 166]
24,++++ (>=75% = ++++),172 (TYTTVPRVAF; listed as Homo sapiens) [compound 172]
25,++++ (>=75% = ++++),274 (AYLHSHALI; listed as Homo sapiens) [compound 274]
26,++++ (>=75% = ++++),278 (RYISDQLFTNF; listed as Homo sapiens) [compound 278]
27,++++ (>=75% = ++++),195 (TYSVSFPMF; listed as Homo sapiens) [compound 195]
28,++++ (>=75% = ++++),217 (FFPPTRQMGLLF; listed as Homo sapiens) [compound 217]
29,++++ (>=75% = ++++),179 (MYDSYWRQF; listed as Homo sapiens) [compound 179]
